# Assay results reported in patent US10039838B2, “Car peptide for homing, diagnosis and targeted therapy for pulmonary and fibrotic disorders” (Vascular BioSciences, priority 2010, dated 2018).
# “Also recorded” adds a separate entry of the source. Primed or numbered codes have the meaning given here. Where no end group is shown, it is not given here. The star is where a group is joined. 5FAM = O=C1OC2(c3ccc(O)cc3Oc3cc(O)ccc32)c2ccc(C(=O)*)cc21; 5FAM′ = not defined here
# Legend:
# [1] = test system: MCT induced hypertensive rat lung; assay: Peptide targeting study in monocrotaline (MCT)-induced pulmonary arterial hypertension, immunohistochemistry; format: in vivo; conditions: peptide 3.3 mg/kg via tail vein, 2 hours after injection, FIG. 4
# Description: A rat model of monocrotaline (MCT)-induced pulmonary arterial hypertension was used for this study. Briefly, male Sprague-Dawley rats (150-200 g, Harlan Laboratories, IN) were administered with a single subcutaneous injection of monocrotaline at 60 mg/kg (Sigma-Aldrich, MO), while control rats were administered 0.9% saline (FIG. 1). Rats were randomly selected and studied for peptide distribution studies on 1, 3, 7, 14 or 21 days after the treatment of monocrotaline.
# (§1) The following peptides were labeled with 5-carboxyfluorescein (5FAM) and used for the lung targeting studies: CAR, 5FAM-CARSKNKDC; VCAM1, CVHSPNKKCGGSK-5FAM; Control, 5FAM-CGGGGGGGC. All peptides were synthesized by Anaspec (Anaspec Inc., CA). Peptides were resolved in PBS at the concentrations of 0.5 mg/mL.
# MCT-treated or untreated rats were injected with peptide solution at a dose of 3.3 mg/kg body weight via the tail vein. […]
# To determine the localization of the peptides, paraffin-embedded tissue sections were immunostained with either hematoxylin and eosin (FIGS. 2-3) or rabbit anti-fluoroscein isothiocyanate (FITC) antibody (Invitrogen, CA) followed by horseradish peroxidase-labeled anti-rabbit IgG secondary antibody (FIG. 4). […] To quantify the targeting efficiency of the peptides to the lung, the immunostained sections were scanned by Aperio Scanscope XT and analyzed using ImageScope software (Aperio Technologies, CA).
# [2] = test system: severe occlusive PAH rat model; assay: Blood pressure tracing, fasudil with CARK; format: in vivo
# Description: (§2) Severe occlusive PAH rat model was used. Animals were injected with SU5416 (20 mg/kg; SUGEN Inc), followed by 3 weeks hypoxia, then followed by 2-10 weeks normoxia.
# The peptide administered was a 7 amino acid variant to the CAR peptide used in previous examples. This variant (CARK) consisted of the following sequence: CARSKNK (SEQ ID NO: 2). In these experiments, CARK was administered at a dose of 3 mg/kg and fasudil administered at 1 mg/kg.
# To measure the acute effects of fasudil with CARK administration on the right and left ventricular systolic pressure (or systolic aortic pressure), blood pressure measurements were performed on catheterized SU5w/hypoxia/normoxia-exposed rats with PAH.
# [3] = test system: mouse lungs after bleomycin injection; assay: Peptide targeting study in bleomycin-induced acute lung injury and pulmonary fibrosis model, immunohistochemistry; format: in vivo; conditions: for Distribution of staining in mouse lungs, acute lung injury model / Distribution of staining in mouse lungs, pulmonary fibrosis model: peptide 3.3 mg/kg via tail vein, 2 hours; for Distribution of staining in mouse lungs, pulmonary fibrosis model: 14 days after bleomycin injection, FIGS. 15-17
# Description: A mouse model of bleomycin induced acute lung injury and pulmonary fibrosis was used for this study. Briefly, 6 WT C57Bl/6 male mice, 8-12 weeks were weighed and anesthetized, and given bleomycin (BL) intratracheally at 4 U/kg. At 3 days (acute lung injury model) and 14 days (pulmonary fibrosis model) after BL injection, peptides were injected via the tail vein.
# as §1
# BL-treated mice were injected with peptide solution at a dose of 3.3 mg/kg body weight via the tail vein. At two hours after the injection, mice were perfused with PBS containing 1% bovine serum albumin under the deep anesthesia with isofluorane at a rate of 3.0% and euthanized. Tissues were fixed by systemic perfusion with 10% buffered formalin via right ventricle. The lung was inflated by injection of 10% formalin through the trachea. Various organs were excised from the rat and fixed for additional twenty four hours and processed for immunohistochemistry.
# To determine the localization of the peptides, paraffin-embedded tissue sections were immunostained with rabbit anti-fluoroscein isothiocyanate (FITC) antibody (Invitrogen, CA) followed by horseradish peroxidase-labeled anti-rabbit IgG secondary antibody. The peptide localization was then visualized by diaminobenzidine (DAB). An automated staining system, Discovery XT (Ventana, Ariz.) was used. To quantify the targeting efficiency of the peptides to the lung, the immunostained sections were scanned by Aperio Scanscope XT and analyzed using ImageScope software (Aperio Technologies, CA) (FIGS. 14-17).
# [4] = test system: cell surface heparan sulfate and heparin; conditions: US 20090036349; Jarvinen and Ruoslahti 2007; cited from earlier work
# [5] = test system: severe occlusive PAH rat model; assay: Blood pressure tracing, imatinib with CAR; format: in vivo; conditions: CAR 3 mg/kg + imatinib 10 mg/kg, FIG. 25
# Description: as §2
# The peptide administered was CAR, CARSKNKDC (SEQ ID NO: 1). In this experiment, CAR was administered at a dose of 3 mg/kg and imatinib administered at 10 mg/kg.
# To measure the acute effects of imatinib with CAR administration on the right and left ventricular systolic pressure, blood pressure measurements were performed on catheterized SU5w/hypoxia/normoxia-exposed rats with PAH.
# [6] = 3 days after bleomycin injection, FIG. 14
substance,measurement,setting,value
"5FAM-CARSKNKDC (cysteine pairing not given here) [CAR-FITC, CAR peptide labeled with 5-carboxyfluorescein, detected with anti-FITC antibody]",CAR-FITC staining of alveolar macrophages,[1],alveolar macrophages take up the stain
CARSKNK [CARK],Effect of CARK co-administration with fasudil on systolic aortic pressure (SAP),"[2]; CARK 3 mg/kg + fasudil 1 mg/kg, compared to fasudil alone, FIG. 22",only a minor reduction in SAP
same,Effect of CARK co-administration with fasudil on LVSP,"[2]; CARK 3 mg/kg + fasudil 1 mg/kg, compared to fasudil alone, FIG. 23",only a minor reduction
same,Effect of CARK co-administration on RVSP lowering by fasudil,"[2]; CARK 3 mg/kg + fasudil 1 mg/kg, compared to fasudil alone, FIGS. 22-23",enhanced the blood pressure lowering effect of fasudil on RVSP
same,Effect on RVSP and LVSP of fasudil administered after cessation of CARK infusion,"[2]; fasudil 10 mg/kg 30 minutes after cessation of CARK infusion, FIG. 24","sustained, pulmonary-specific effect"
CARSKNKDC,"Staining intensity of CAR compared with VCAM1, acute lung injury model",[3]; [6],more intense
same,"Distribution of staining in mouse lungs, acute lung injury model",[3]; [6],stain the interstitium and inflammatory cells
same,"Distribution of staining in mouse lungs, pulmonary fibrosis model",[3],Interstitial and inflammatory staining is seen in areas of lung fibrosis; also recorded: areas of dense fibrosis and spared areas showing little staining
same,Binding to cell surface heparan sulfate and heparin,[4],binds to cell surface heparan sulfate and heparin
same,Effect of CAR co-administration on RVSP lowering by imatinib,[5],enhanced the blood pressure lowering effect of imatinib on RVSP
same,Effect of CAR co-administration with imatinib on LVSP,[5],only a minor reduction in LVSP
"CVHSPNKKCGGSK-5FAM (CVHSPNKKCGGSK-{5FAM′}; cysteine pairing not given here) [VCAM1, reference compound]","Distribution of staining in mouse lungs, acute lung injury model",[3]; [6],stain the interstitium and inflammatory cells
same,"Distribution of staining in mouse lungs, pulmonary fibrosis model",[3],areas of mild fibrosis and spared areas showing little staining
